Laboratory results taken from patent publication US20250188032A1, “NITROGEN-CONTAINING HETEROCYCLIC COMPOUNDS AND USES THEREOF” (BNH RESEARCH CO., LTD., priority 2022, published 2025).
“And” between values parts separate entries of the source, which are not always exact repeats. Equal entries are not always repeated.

B1: BDNF: brain-derived neurotrophic factor applied to the mice barrel cortex using Alzet osmotic pump (protein, UniProt P23560 19-247, looked up)
Neurotrophic factor BDNF …: APMKEANIRGQGGLAYPGVRTHGTLESVNGPKAGSRGLTSLADTFEHVIEELLDEDQKVRPNEENNKDADLYTSRVMLSSQVPLEPPLLFLLEEYKNYLDAANMSMRVRRHSDPARRGELSVCDSISEWVTAADKKTAVDMSGGTVTVLEKVPVSKGQLKQYFYETKCNPMGYTKEGCRGIDKRHWNSQCRTTQSYVRALTMDSKKRIGWRFIRIDTSCVCTLTIKRGR

Legend:
293T cells = assay: Cytotoxicity test (CCK-8 cell viability) in 293T cells; type: cell-based, human; settings: 24 hours co-incubation, 293T cell line, % of control
Experimental: Human undifferentiated neuroblastoma cell line SH-SY5Y and human embryonic kidney cell line (HEK)-293T were purchased from Korean Cell Line Bank (Korea) and Takara (Japan), respectively. Cells were grown in HyClone Minimal Essential Medium (MEM) and Dulbecco's Modified Eagle Medium (DMEM), respectively, supplemented with 10% (v/v) fetal bovine serum (FBS), penicillin (100 U/mL), and streptomycin ([…]). Cells were maintained in a humidified atmosphere of 95% air and 5% CO2 at 37° C. Cells were passaged 10 times at maximum. Cells were dissociated using 0.05% trypsin-EDTA solution and the cells were seeded in new culture dishes for maintenance.
To examine the cytotoxicity of compounds described herein in human cell lines, SH-SY5Y and 293T cells were used. Approximately 8,000 cells (for 293T) and 15,000 cells (for SH-SY5Y) were plated per well of a 96-well plate (SPL Life Sciences Co., Ltd., Pocheon, Korea). After incubating at 37° C. for 24 hours in a humidified atmosphere containing 5% CO2, the culture medium was replaced by a series of concentrations of test compounds diluted in the corresponding culture medium. The time of co-incubation was 24 hours and six replicates were made for each measurement. Finally, 10 μL of CCK-8 reagent (Dojindo Laboratories, Rockville, MD) was added to each well, and after incubation at 37° C. for 3 minutes, the OD at 450 nm was measured using a multifunction microplate reader (Tecan Infinite M200 Pro). These measurements were compared to that of a control and expressed as a percentage of the control to calculate cell viability. The IC50 value was calculated using SPSS software. To do this, the absorbance of the blank wells with only growth medium is subtracted from the values or the wells with cells. The readout value of background (vehicle) was set as a 100% viability, and then the percent viability for each test solution was calculated.
Cell viability (%)=[(As-Ab)/(Ac-Ab)]×100
The data was presented as the mean value and standard error of the mean (S.E.M.). Statistical analysis was performed with the one-way ANOVA with Tukey's post hoc test (GraphPad Prism 5 software package, version 5.02, GraphPad Software Inc. USA). Significance was accepted at p<0.05.

GluN2B = assay: Western blot of GluN2B protein in cultured fetal cortical cells; type: cell-based, mice; settings: for GluN2B expression, Western blot results, Mean: relative value, vehicle set to 1, treated for 24 hours, N 3 or more; for Effect on GluN2B expression compared to the vehicle: comment on Table 6
Experimental: The amount of GluN2B reacted with the compound of the present disclosure was measured using Western blot. The fetal cerebral cortex was extracted from mice at 17 days of gestation, dissociated into single cells, cultured for 13 days, and treated with BnH drugs for 24 hours. The drug-treated cells were subjected to protein lysate preparation using RIPA protein lysis buffer containing protease and phosphatase inhibitors. The protein concentration was determined using a BCA protein assay kit (Pierce Biotechnology) using bovine serum albumin as a standard. Equal amounts of protein (20 μg per lane) were separated by electrophoresis on SDS-polyacrylamide gels at 90 V for 2 hours, then transferred from the SDS-polyacrylamide gel to PVDF membrane at 100 V for 1 hour. Then, primary reaction with GluN2B antibody (ab65783, Abcam) was performed at 4° C. for 1 day, washed three times at 10-minutes intervals with 1×PBT, and secondary reaction was performed with anti-mouse antibody (sc-2357, Santa Cruz) for 1 hour, followed by washing three times at 10-minutes intervals with 1×PBT. Western blotting was performed as described above to confirm GluN2B protein expression. Subsequently, each blot was re-probed using anti-β-actin antibody (sc-47778, Santa Cruz). Housekeeping protein β-actin was detected as a normalization control.
The increase and decrease of BnH12 series were confirmed by setting the vehicle to 1 (N for each group was 3 or more).
Using the experimental procedure described in Example 3, it was determined whether various BnH12 series compounds increase GluN2B expression, and the results are shown in Table 6. These in vitro experimental results are expressed as relative values to the group (vehicle) that was not treated with the compound, with the effect of the group set to 1.

[1] = tested on: C57BL/6J mice barrel cortex (layer 4); assay: Synaptic function test: TC EPSC potency and GABA/AMPA ratio in barrel cortex (layer 4); type: in vivo
Source text: Eight weeks old male C57BL/6J mice were anesthetized with isoflurane during surgery. The mice were then be placed in a stereotaxic frame (RWD Life Science, China). The parietal and the frontal bones were exposed by a sagittal incision of the scalp at the midline from the level of the eyes to the occipital protuberance. A small burr hole was drilled after exposing the skull. The injection cannula was placed at the following coordinates: (Mouse: Bregma −3.30, lateral −1.50, and ventral 0.7 mm). Sterile saline solution (+/−a compound of the present disclosure) was perfused at a constant flow rate of 0.5 μL/h through the injection cannula using a mini-Os pump (DURECT Corporation ALZET Osmotic Pumps, CA). Implantation was done in layer 4 of the barrel cortex ipsilateral. To estimate extent of the diffusion of the injected compound in layer 4 barrel cortex during pump injection, methylene blue was first injected to stain the diffusion area. On average methylene blue diffused to […] away from the injection site (the total area of the barrel cortex region is about 1500 μm). Based on this analysis, the present inventors recorded from barrel cortex area.
2 mg of BnH12001 was dissolved in 800 ul of DMSO and prepared as a stock solution. For oral administration, BnH12001 DMSO stock:PEG400:Saline was mixed in a ratio of 5:55:40 and 200 μl/animal was administered. For the control group, a vehicle in which DMSO:PEG400:Saline was mixed in a 5:55:40 ratio was administered at 200 ul/animal. In the single drug administration test, the compound was administered once a day for about 11 to 12 days at a dose of 1 mg/kg. Dose response test was performed by administering the compound once a day for about 11 to 12 days at doses of 0.03, 0.1, 0.3, 1, 3, and 10 mg/kg. 5 mice were used for the compound administration group and the control group, respectively.
For TC or hippocampus slice preparation. 9 to 10 weeks-old male C57BL/6J mice were anesthetized with isoflurane. Then, the brain was rapidly cooled via transcardial perfusion with ice-cold sucrose-artificial cerebrospinal fluid (aCSF). The brain was removed and placed in ice-cold sucrose aCSF. Paracoronal slices were prepared at an angle of 50° relative to the midline on a ramp at an angle of 10°. Then, slices were incubated in aCSF at 35° C. for 30 minutes to recover. Slices were then incubated in aCSF at room temperature (23 to 25° C.) for 1 to 4 hours before being placed in the recording chamber for experiments. The standard aCSF contains saturated with 95% O2/5% CO2. The brain of the mouse was removed and cut into 400 μm at a 50° angle (mouse at a 55° angle) to attach the cut portion to the vibratome disc to be the bottom. Brain slice was incubated in 35° C. in aCSF solution for 30 minutes, or at RT in aCSF solution for 1 hour.
All electrophysiological experiments were conducted at 27 to 29° C. For electrophysiological experiments, electrodes with […] resistance were used and stimuli were applied to the ventral posteromedial nucleus (VPM) using a concentric bipolar electrode (FHC, Bowdoin, ME). The somatosensory cortex was identified by the presence of barrels under 4× magnification and differential interference contrast (DIC) optics, and by the ability to evoke short and constant latency field excitatory postsynaptic potentials (fEPSPs) by VPM stimulation. Whole-cell voltage-clamp recordings were made from stellate cells (SC) in layer IV of the somatosensory barrel cortex using infrared illumination and differential interference contrast (DIC) optics. The composition of whole cell recording solution is shown as follows:
Whole cell recordings were made using a multiclamp 700A (Molecular devices, Sunnyvale, CA) digitized at 10 kHz and filtered at 2 kHz. […]

[2] = oral, 1 mg/kg, 8-week-old C57BL/6J mice
[3] = applied to the mice barrel cortex using Alzet osmotic pump

Row | Molecule | Cell viability test results (CCK) 10 uM (293T cells) | Cell viability test results (CCK) 100 uM (293T cells) | GluN2B expression, Western blot results, Mean (GluN2B) | Effect on GluN2B expression compared to the vehicle (GluN2B) | further results
1 | C[C@H]1CC[C@@H](C(=O)O)CN1C(=O)Cc1ccc(O)cc1 [BnH12079, (3R,6S)-1-(2-(4-hydroxyphenyl)acetyl)-6-methylpiperidine-3-carboxylic acid] | 99%< | 90%< | 1.062 |  | 
2 | C[C@H]1CC[C@@H](C(=O)O)CN1C(=O)Cc1ccc([N+](=O)[O-])cc1 [BnH12069, (3R,6S)-6-methyl-1-(2-(4-nitrophenyl)acetyl)piperidine-3-carboxylic acid] | 95%< and 80%< | 95%< and 80%< | 1.993 | excellent effects | 
3 | COc1ccc(CC(=O)N2C[C@H](C(=O)O)CC[C@@H]2C)cc1 [BnH12025, (3R,6S)-1-(2-(4-methoxyphenyl)acetyl)-6-methylpiperidine-3-carboxylic acid] | 90%< | 80%< | 1.582 | excellent effects | 
4 | C[C@H]1CC[C@@H](C(=O)[O-])CN1C(=O)Cc1ccccn1.[Na+] [BnH12039, Sodium (3R,6S)-6-methyl-1-(2-(pyridin-2-yl)acetyl)piperidine-3-carboxylate] | 95%< | 90%< | 1.103 |  | 
5 | C[C@H]1CCCCN1C(=O)Cc1cccnc1 [BnH12060, (S)-1-(2-methylpiperidin-1-yl)-2-(pyridin-3-yl)ethan-1-one] | 99%< | 99%< | 1.469 | excellent effects | 
6 | cyclotraxin B [reference compound] |  |  |  |  | BDNF-induced augmentation of TC EPSC potency ([1]; cyclotraxin B 1 μM application): almost completely prevented; BnH12001-induced increase of TC EPSC potency ([1]; cyclotraxin B 1 μM application): nearly completed hindered
7 | C[C@H]1CC[C@@H](C(=O)O)CN1C(=O)Cc1ccc(F)cc1Cl [BnH12001 enantiomer (3R,6S, 98%<), (3R,6S)-1-(2-(2-chloro-4-fluorophenyl)acetyl)-6-methylpiperidine-3-carboxylic acid] |  |  |  |  | Balance of excitation/inhibition (GABA/AMPA ratio) [1, 2]: maintaining the balance of excitation/inhibition; Efficacy on TC synaptic potency compared among racemate and enantiomers [1, 2]: better efficacy than the racemate; TC synaptic potency in the sensory cortex [1, 2]: increase the TC synaptic potency
8 | COc1ccc(CC(=O)N2C[C@@H](C(=O)O)CC[C@H]2C)cc1 [BnH12063, (3S,6R)-1-(2-(4-methoxyphenyl)acetyl)-6-methylpiperidine-3-carboxylic acid] | 95%< | 95%< | 1.652 | excellent effects | 
9 | C[C@H]1CC[C@@H](C(=O)NO)CN1C(=O)Cc1ccc(F)cc1Cl [BnH12009, (3R,6S)-1-(2-(2-chloro-4-fluorophenyl)acetyl)-N-hydroxy-6-methylpiperidine-3-carboxamide] | 95%< | 90%< | 1.248 |  | 
10 | C[C@H]1CCCCN1C(=O)Cc1ccccc1 [BnH12061, (S)-1-(2-methylpiperidin-1-yl)-2-phenylethan-1-one] | 95%< | 95%< | 1.683 | excellent effects | 
11 | B1 |  |  |  |  | IPSC/EPSC ratio [1, 3]: without alteration; TC EPSC potency [1, 3]: significantly increased
